Here are results for ten compounds from US9133126B2, “Fluoroalkyl dibenzoazepinone compounds” (BRISTOL-MYERS SQUIBB COMPANY, priority 2012, dated 2015).

The data set can be described thus: in vitro. To be noted: human, liver microsomes, pH 7.4. (Microsomes from liver hold many membrane-bound enzymes, among them those of drug oxidation.)

The half-life is how long it takes for the measured level to halve. Read a high half-life as slow loss. The compound `CCC[C@H](C(N)=O)[C@@H](CCC(F)(F)F)C(=O)N[C@@H]1C(=O)Nc2ccccc2-c2ccccc21` [Example 2, (2R,3S)-N-((7S)-6-Oxo-6,7-dihydro-5H-dibenzo[b,d]azepin-7-yl)-3-propyl-2-(3,3,3-trifluoropropyl)succinamide] had a half-life at 0.5 μM of at least 40 min.

`NC(=O)[C@@H](CC1CC1)[C@@H](CCC(F)(F)F)C(=O)N[C@@H]1C(=O)Nc2ccccc2-c2ccccc21` [Example 3, (2R,3S)-3-(Cyclopropylmethyl)-N-((7S)-6-oxo-6,7-dihydro-5H-dibenzo[b,d]azepin-7-yl)-2-(3,3,3-trifluoropropyl)succinamide] showed a half-life at 0.5 μM of at least 40 min.

In turn, `CCC[C@@H](C(=O)N[C@@H]1C(=O)Nc2ccccc2-c2ccccc21)[C@H](CCC(F)(F)F)C(N)=O` [Example 4, (2R,3S)-N-((7S)-6-Oxo-6,7-dihydro-5H-dibenzo[b,d]azepin-7-yl)-2-propyl-3-(3,3,3-trifluoropropyl)succinamide] came in with a half-life at 0.5 μM of at least 40 min.

`NC(=O)[C@@H](CC1CC1)[C@@H](CCC(F)(F)F)C(=O)N[C@@H]1C(=O)Nc2c(F)cccc2-c2ccccc21` [Example 5, (2R,3S)-3-(Cyclopropylmethyl)-N-((7S)-4-fluoro-6-oxo-6,7-dihydro-5H-dibenzo[b,d]azepin-7-yl)-2-(3,3,3-trifluoropropyl)succinamide] gave a half-life at 0.5 μM of at least 40 min.

Consider `NC(=O)[C@@H](c1ccccc1)[C@@H](CCC(F)(F)F)C(=O)N[C@@H]1C(=O)Nc2ccccc2-c2ccccc21` [Example 6, (2R,3R)-N-((7S)-6-Oxo-6,7-dihydro-5H-dibenzo[b,d]azepin-7-yl)-3-phenyl-2-(3,3,3-trifluoropropyl)succinamide], for which the half-life at 0.5 μM is at least 40 min.

Turning to `NC(=O)[C@@H](CC1CC(F)(F)C1)[C@@H](CCC(F)(F)F)C(=O)N[C@@H]1C(=O)Nc2ccccc2-c2ccccc21` [Example 7, (2R,3S)-3-((3,3-difluorocyclobutyl)methyl)-N-((7S)-6-oxo-6,7-dihydro-5H-dibenzo[b,d]azepin-7-yl)-2-(3,3,3-trifluoropropyl)succinamide], the half-life at 0.5 μM was at least 40 min.

`NC(=O)[C@@H](CCC(F)(F)F)[C@@H](CCC(F)(F)F)C(=O)N[C@@H]1C(=O)Nc2c(Cl)cccc2-c2ccccc21` [Example 8, (2R,3S)-N-(4-Chloro-6-oxo-6,7-dihydro-5H-dibenzo[b,d]azepin-7-yl)-2,3-bis(3,3,3-trifluoropropyl)succinamide] registered a half-life at 0.5 μM of at least 40 min.

`CCC[C@H](C(N)=O)[C@@H](CCC(F)(F)F)C(=O)N[C@@H]1C(=O)Nc2c(F)cccc2-c2ccccc21` [Example 9, (2R,3S)-N-(4-Fluoro-6-oxo-6,7-dihydro-5H-dibenzo[b,d]azepin-7-yl)-3-propyl-2-(3,3,3-trifluoropropyl)succinamide]: the half-life at 0.5 μM was at least 40 min.

As to `Cc1cccc2c1NC(=O)[C@@H](NC(=O)[C@H](CCC(F)(F)F)[C@H](CCC(F)(F)F)C(N)=O)c1cc(F)ccc1-2` [Example 10, (2R,3S)-N-((7S)-9-Fluoro-4-methyl-6-oxo-6,7-dihydro-5H-dibenzo[b,d]azepin-7-yl)-2,3-bis(3,3,3-trifluoropropyl)succinamide], the half-life at 0.5 μM is at least 40 min.

Compound `Cc1cccc2c1NC(=O)[C@@H](NC(=O)[C@H](CCC(F)(F)F)[C@H](CC1CC1)C(N)=O)c1cc(F)ccc1-2` [Example 11, (2R,3S)-3-(Cyclopropylmethyl)-N-((7S)-9-fluoro-4-methyl-6-oxo-6,7-dihydro-5H-dibenzo[b,d]azepin-7-yl)-2-(3,3,3-trifluoropropyl)succinamide] gave a half-life at 0.5 μM of at least 40 min.
